Measured values reported in patent US20250204515A1, “Heparanase Inhibition for Graft Protection” (University of Pittsburgh - Of the Commonwealth System of …, priority 2022, published 2025).
Entries after “also recorded” stand apart in the source; their conditions may differ.

Legend:
MMP-2 = experiment: Gelatin zymography of EVLP perfusate, inhibitors in perfusate; set-up: species or system rat; settings: 4 hours EVLP, vs SF4 and control groups
Protocol: Gelatin zymography: Gelatin zymography was performed to measure secreted MMP-2 and MMP-9 activities in EVLP perfusate. Briefly, 20 μl of perfusate was mixed with 2×SDS sample buffer then loaded onto a 10% polyacrylamide gel containing 0.1% SDS and […]. After protein separation by electrophoresis, the gel was washed in renaturing buffer (Novex™ Invitrogen™) at room temperature, and then incubated in developing buffer (Novex™ Invitrogen™) overnight at 37° C. The next day, the gel was stained with Coomassie Brilliant Blue R-250 (Bio-Rad) and imaged (ChemiDoc, Bio-Rad). Enzyme activity, visualized as clear bands against the dark blue background, was quantified using Image-J (NIH).

rat lungs = experiment: Rat EVLP for 4 hours with HPSE inhibitors in the perfusate: physiology, endothelial barrier, edema; settings: heparin 1000-U/hour or SF4 1 μM in perfusate
Protocol: In the heparin group, 1000-U of heparin were initially added to the EVLP perfusate, then 1000-U of heparin were administered every hour during EVLP. […] Two control conditions were included in the experimental protocol: 1) sham controls (Sham) were lungs not placed on EVLP and 2) untreated controls (Control) were lungs placed on EVLP without HPSE inhibitor treatment. EVLP physiology, endothelial integrity, inflammation and glycocalyx preservation for EVLP lungs and post-transplant lung grafts were investigated across all treatment regimens.
Ex vivo lung perfusion in rats: EVLP was performed using a commercially-available rodent EVLP system (IL-2 Isolated Perfused Rat or Guinea Pig Lung System; Harvard apparatus, Holliston, MA). Acellular Steen solution was used for EVLP perfusate and medicated with methylprednisolone (Solu-Medrol®; Pfizer, Inc., New York, NY) and cephalosporin (Cefazolin; WG critical care LLC, Paramus, NJ) equally in all experimental groups. […] Pulmonary artery pressure, peak airway pressure, and airway flow were monitored continuously, and dynamic lung compliance (Cdyn) and pulmonary vascular resistance (PVR) were analyzed.
Evaluation of endothellal barrier Integrity After 4 hours of EVLP, 60 mg of Evans blue dye (EBD, Millipore-Sigma, Burlington, MA) was administered into the perfusate to assess vascular endothelial permeability. After 30 minutes of perfusion, the lung vascular bed was rinsed with 20 ml of phosphate-buffered saline (PBS), and slices of lungs were incubated in formamide (Millipore Sigma) overnight at 60° C. Absorbance of the extractant was measured at 620 nm, and EBD was normalized to dry-tissue weight.
Wet-to-Dry (W/D) weight ratio: Lung tissues collected 2 hours after transplant were immediately weighed then placed in a 60° C. oven to dry for 72 hours. Tissues were weighed again after drying to determine the wet-to-dry lung weight ratio.

[1] = test system: human lung microvascular endothelial cells (HLMVECs); experiment: In-vitro cellular toxicity test for HPSE inhibitor candidates
Protocol: In-vitro cellular toxicity test for HPSE Inhibitor candidates: Human lung microvascular endothelial cells (HLMVECs) were obtained from the American Type Culture Collection (Rockville, MD, USA). Cells were cultured in a humidified incubator at 37° C. and 5% CO2 and grown in endothelial growth medium (EGM™-2 Endothelial Cell Growth Medium-2, Lonza, Basel, Switzerland) supplemented with 2% heat-inactivated fetal bovine serum and 0.04% hydrocortisone. Cell media was replaced every 48 hours, and the cells were split upon 80-90% confluence.
Final tested concentrations of HPSE inhibitors were calculated based upon repeatable in vitro dose-response studies. After 24 hours incubation, cell viability was confirmed by Trypan blue exclusion assay. Total mRNA was isolated using Trizol (Thermo Fisher Scientific Inc., Waltham, MA) and relative messenger RNA (mRNA) expression levels of hemeoxygenase-1 (HO-1), interleukin (IL)-6, tumor necrosis factor (TNF)-α, monocyte chemoattractant protein (MCP)-1, B-cell lymphoma 2 Associated X (Bax), B-cell lymphoma 2 (Bcl-2), B-cell lymphoma-extra-large (Bcl-xL) were quantified by SYBR Green 2-step, real-time, reverse transcription-polymerase chain reaction (RT-PCR). Relative gene expression levels were normalized to mRNA expression of glyceraldehyde-3-phosphate dehydrogenase (GAPDH) and compared to relative mRNA expression levels in control-treated HLMVEC.

HPSE = HPSE activity assay in rat lung tissue after 4 hours of EVLP; settings: after 4-hours EVLP; heparin 1000-U/hour or SF4 1 μM in perfusate
Protocol: HPSE activity assay. HPSE activity was measured via a β-glucuronidase activity assay using 4-methylumbelliferyl-β-D-glucuronide (4-MUG) substrate (Millipore-Sigma). Briefly, after 4 hours of EVLP, lung tissues were homogenized in cold PBS. […] Fluorescence (λex 360 nm/λem 460 nm) was continuously measured for 60 minutes using a fluorescence microplate reader (BioTech Synergy HTX, Agilent Technologies, Santa Clara, CA).

heparanase (HPSE) = experiment: In vitro β-D-glucuronidase activity assay (4-MUG substrate)
Protocol: In vitro β-D-glucuronidase activity assay Heparanase activity was measured via β-Glucuronidase activity assay using 4-methylumbelliferyl-β-D-glucuronide (4-MUG) substrate (Millipore-Sigma). As a source of enzymes, platelet rich plasma (PRP) obtained from rat whole blood or rat lung whole tissue lysate, was used. […] Fluorescence (λex 360 nm/λem 460 nm) was continuously measured for 60 minutes using a fluorescence microplate reader (BioTech Synergy HTX, Agilent Technologies, Santa Clara, CA).

[2] = test system: glycosaminoglycans (GAGs), syndecan-1; experiment: Glycocalyx shedding in rat lungs during EVLP (GAGs, syndecan-1 ELISA, immunofluorescence); settings: after 4 hours EVLP; SF4 vs heparin-treated, heparin vs controls
Protocol: Syndecan-1 ELISA: Syndecan-1 concentrations in EVLP perfusate were quantitated using ELISA (Immunotag™ Rat Syndecan-1 ELISA, G-Biosciences, Geno Technology, Inc., St. Louis, MO). ELISA was performed according to the manufacturer's instructions using perfusate samples acquired after 4 hours of EVLP.
Determination of glycosaminoglycans (GAGS): The concentration of GAGs in rat EVLP perfusate at 4 hours was quantitated using 1,9-dimethylmethylene blue (DMMB, Millipore Sigma). The DMMB solution (pH˜3.0) was prepared by dissolving 16 mg/I DMMB in distilled H2O containing 3.04 g/I glycine, 1.6 g/l NaCl and 95 ml 0.1 M acetic acid. Briefly, 1 ml DMMB solution was mixed with 100 μl EVLP perfusate then incubated for 18 h at room temperature. The tubes were then centrifuged at 14,000 rpm for 20 min at 4° C. Supernatants were carefully decanted, 100 μl dissolvent buffer (4 M guanidine hydrochloride, 50 mM sodium acetate, 10% propan-1-ol, pH 6.8) was added to each pellet, and the tubes were incubated at 40° C. and vortexed until GAG-DMMB pellets were completely dissolved. GAG content in each sample was measured spectrophotometrically at 656 nm.
(§1) Tissue staining and histopathological analysis: Formalin-fixed, paraffin-embedded lung tissues collected 2 hours after transplantation were sectioned to 4 μm thickness and stained with hematoxylin and eosin. In parallel, sections of tissue collected after 4 hours of EVLP were stained for immunofluorescence imaging using primary antibodies for syndecan-1 (DL-101) (#sc-12765, Santa Cruz) and caveolin-1 (#3238, Cell Signaling Technology, Danvers, MA) and with Hoechst 33342 dye (Thermo Scientific). Donkey Cy3-conjugated anti-mouse IgG (#AP192C, MilliporeSigma, Burlington, MA) and Cy5-conjugated goat anti-rabbit IgG (#A10523, Thermo Scientific) secondary antibodies were used to detect primary antibodies. Stained slides were scanned with a whole-slide image scanner (Axio Scan.Z1; Carl Zeiss AB, Oberkochen, Germany) and analyzed with digital image processing software (ZEN lite blue edition; Carl Zeiss).

rat lung grafts = experiment: Rat orthotopic left lung transplantation following EVLP; format: in vivo; settings: 2 hours after transplant following 4 hours of EVLP
Protocol: Rat orthotopic left lung transplantation following EVLP: Orthotopic, single-lung transplantation of the left lung was performed using the 3-cuff method. After EVLP for 4 hours, the lungs were cooled with 4° C. Perfadex on the EVLP system and stored at 4° C. for 1 hour prior to transplantation. The recipient animals were sacrificed 2 hours after reperfusion. When analyzing graft function, the native lung was clamped, 100% 02 was administered for 5 minutes through a ventilator, and the recipient's blood was sampled from the graft pulmonary vein for blood gas analysis.
Graft tissues collected after 4 hours of EVLP and 2 hours after reperfusion were examined for relative mRNA expression levels of interleukin (IL)-6, IL-1, tumor necrosis factor (TNF)-α, and glyceraldehyde-3-phosphate dehydrogenase (GAPDH). Gene expression levels were normalized to GAPDH mRNA levels.
as §1

- inhibition of HPSE in vitro, compared with SF4 (heparanase (HPSE); in vitro data): not as effective as SF4
- β-D-glucuronidase activity, dose response (heparanase (HPSE); in vitro, FIG. 8): increased in a dose-dependent manner
Substance: heparin
- MMP-2 activity in EVLP perfusate (MMP-2): significantly elevated
- pulmonary vascular resistance (PVR) during EVLP (rat lungs; 4-hour EVLP): increased
- dynamic lung compliance (Cdyn) during EVLP (rat lungs; 4-hour EVLP, vs control): neither heparin nor SF4 altered Cdyn
- Evans blue dye (EBD) accumulation in lung tissue (rat lungs; after 4-hours EVLP): significantly more EBD had accumulated
- wet-to-dry (W/D) ratio (rat lungs; after 4 hours of EVLP): further augmented
- toxicity against HLMVECs (endothelial cell cultures) [1]: safe
- HPSE activity in the lungs (HPSE): partially inhibited; also recorded: not sufficiently nor significantly inhibited
- syndecan-1 concentration in EVLP perfusate [2]: markedly increased; also recorded: significantly higher
- H&E histology of grafts (rat lung grafts): swollen alveolar walls, congestion in the blood vessels, and fluid leaks into the alveolar space
- post-transplant lung function (P/F ratio) (rat lung grafts): significantly lower
